Test [1] has as its system VEC/SMC-HCM insert (HUVEC / HUASMC vascular wall model). The following applies: histamine 10 μM or 100 μM, incubated 120 minutes, FIG. 10.
Method: • (1) 2 mg of FITC-dextran 70 (70 kDa, Sigma) was dissolved in 8 ml of HBSS (+) (084-08965, Wako), to prepare a 250 μg/ml FITC-dextran 70 solution. The FITC-dextran 70 solution was stored in a light-shielded condition. […] The 96-well black plate was light-shielded by being covered with an aluminum sheet. • (9) The fluorescent intensity of the FITC in each sample liquid was measured using a plate reader (ENSPIRE, PerkinElmer) with an excitation wavelength (Ex) of 485 nm and an emission wavelength (Em) of 530 nm.
Test [2] relates to cell layered body of rat vascular endothelial cells and rat smooth muscle cells on HCM. Kind of test: Evaluation of response to physiologically active substance (thrombin) by microscopy of the cell layered body. Conditions: 37° C., 30 minutes. In kind it is cell-based. The procedure: • (1) 0.1 mg (100 units) of thrombin (#T7009-100UN, Sigma) was dissolved in 100 μl of physiological saline to prepare a thrombin solution at a concentration of 1000 U/mL. […] The micrograph of the cell layered body is shown in FIG. 12, which is a superposed image of red fluorescence from VE-cadherin and green fluorescence from α-smooth muscle actin.

Take `NCCc1c[nH]cn1` [histamine, Histamine]: the “FITC-dextran 70 permeability” value in test [1] is “increase in FITC-dextran 70 permeability depending on the concentration of histamine”.
In the case of thrombin, in test [2] (25 U/mL or 100 U/mL thrombin, FIG. 12), the “cell contraction observed under a microscope” value is “cell contraction due to activation of actin stress fibers caused by the addition of thrombin was observed”. In addition, the “concentration dependence of cell contraction” value in test [2] (25 U/mL vs 100 U/mL thrombin) was “Higher thrombin concentrations caused stronger cell contractions”.
